Data: patent US12435060B2, “Acylamino bridged heterocyclic compound, and composition and application thereof” (BEIJING SCITECH-MQ PHARMACEUTICALS LIMITED, priority 2019, dated 2025)
pIC50: −log10 of the molar value.

System: HT29 cells
Assay: Inhibition of cell necrosis (CCK8 method), induced programmed necrosis of HT29 cells
Type: cell-based
Conditions: Homo sapiens, HT-29; rescue from necrosis induced by TNF-α 20 ng/mL, AT-406 1 μM, Z-VAD-FMK 20 μM; 16-20 hours; CCK-8, OD 450 nm
Summary of the method: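 HT29 cells in McCOY's 5A with 10% FBS were pre-treated for 30 min with compound (9 fourfold steps, 25000 to 0.38 nM final, 0.25% DMSO). Necrosis was then induced with TNF-α 20 ng/mL, AT-406 1 μM and Z-VAD-FMK 20 μM for 16-20 h. Viability was read by CCK-8 OD450, normalized between uninduced and induced wells, and IC50 was curve-fitted.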

SMILES	pIC50
Cc1ccc(OCCCC(C)(C)O)cc1-c1ccnc(NC(=O)c2nnc(Cc3c(F)ccc(F)c3F)[nH]2)c1 [Example 216, 5-(2,3,6-trifluorobenzyl)-N-(4-(5-((4-hydroxy-4-methylpentyl)oxy)-2-methylphenyl)pyridin-2-yl)-4H-1,2,4-triazole-3-carboxamide]	≥ 7.00
Cc1ccc(OCCN2CCCCC2)cc1-c1ccnc(NC(=O)c2nnc(Cc3cccc(Cl)c3F)[nH]2)c1 [Example 233, 5-(2-fluoro-3-chlorobenzyl)-N-(4-(2-methyl-5-(2-(piperidin-1-yl)ethoxy)phenyl)pyridin-2-yl)-4H-1,2,4-triazole-3-carboxamide]	5.00 to 6.00
CCC(O)(CC)CCCOc1ccc(C)c(-c2ccnc(NC(=O)c3nnc(CC4CCCC4)[nH]3)c2)c1 [Example 166, 5-(cyclopentylmethyl)-N-(4-(5-((4-ethyl-4-hydroxyhexyl)oxy)-2-methylphenyl)pyridin-2-yl)-4H-1,2,4-triazole-3-carboxamide]	≥ 7.00
CC(C)(O)CCCOc1ccc(Cl)c(-c2ccnc(NC(=O)c3nnc(Cc4ccc(F)c(C(F)(F)F)c4)[nH]3)c2)c1 [Example 349, N-(4-(2-chloro-5-((4-hydroxy-4-methylpentyl)oxy)phenyl)pyridin-2-yl)-5-(4-fluoro-3-(trifluoromethyl)benzyl)-4H-1,2,4-triazole-3-carboxamide]	< 5.00
O=C(Nc1cc(-c2cc(OCC3CCOCC3)ccc2F)c(Cl)cn1)c1nnc(CC2CCCCC2)[nH]1 [Example 330, 5-(cyclohexylmethyl)-N-(5-chloro-4-(2-fluoro-5-((tetrahydro-2H-pyran-4-yl)methoxy)phenyl)pyridin-2-yl)-4H-1,2,4-triazole-3-carboxamide]	6.00 to 7.00
O=C(Nc1cc(-c2cc(OCC3CCOCC3)ccc2Cl)c(F)cn1)c1nnc(Cc2ccccc2F)[nH]1 [Example 422, N-(4-(2-chloro-5-((tetrahydro-2H-pyran-4-yl)methoxy)phenyl)-5-fluoropyridin-2-yl)-5-(2-fluorobenzyl)-4H-1,2,4-triazole-3-carboxamide]	≥ 7.00
C=Cc1ccc(OCCOC(C)(C)C)cc1-c1ccnc(NC(=O)c2nnc(Cc3ccccc3)[nH]2)c1 [Example 78, 5-benzyl-N-(4-(5-(2-(tert-butoxy)ethoxy)-2-vinylphenyl)pyridin-2-yl)-4H-1,2,4-triazole-3-carboxamide]	≥ 7.00
Cc1ccc(OCCCCC(C)(C)O)cc1-c1cc(NC(=O)c2nnc(CC3CCCCC3)[nH]2)ncc1F [Example 495, 5-(cyclohexylmethyl)-N-(5-fluoro-4-(5-((5-hydroxyl-5-methylhexyl)oxy)-2-methylphenyl)pyridin-2-yl)-4H-1,2,4-triazole-3-carboxamide]	≥ 7.00
Cc1ccc(OCCCC(C)(C)O)cc1-c1ccnc(NC(=O)c2nnc(Cc3ccccc3F)[nH]2)c1 [Example 183, 5-(2-fluorobenzyl)-N-(4-(5-((4-hydroxy-4-methylpentyl)oxy)-2-methylphenyl)pyridin-2-yl)-4H-1,2,4-triazole-3-carboxamide]	≥ 7.00
O=C(Nc1cc(-c2cc(OCC3CCOCC3)ccc2F)ccn1)c1nnc(Cc2ccccc2F)[nH]1 [Example 315, 5-(2-fluorobenzyl)-N-(4-(2-fluoro-5-((tetrahydro-2H-pyran-4-yl)methoxy)phenyl)pyridin-2-yl)-4H-1,2,4-triazole-3-carboxamide]	6.00 to 7.00
O=C(Nc1cc(-c2cc(OCCCCCO)ccc2C(F)(F)F)ccn1)c1nnc(Cc2ccccc2)[nH]1 [Example 275, 5-benzyl-N-(4-(5-((5-hydroxypentyl)oxy)-2-(trifluoromethyl)phenyl)pyridin-2-yl)-4H-1,2,4-triazole-3-carboxamide]	≥ 7.00
O=C(Nc1cc(-c2cc(OCC3CCOCC3)ccc2Cl)ccn1)c1nnc(CC2CCCC2)[nH]1 [Example 401, N-(4-(2-chloro-5-((tetrahydro-2H-pyran-4-yl)methoxy)phenyl)pyridin-2-yl)-5-(cyclopentylmethyl)-4H-1,2,4-triazole-3-carboxamide]	≥ 7.00
CCC(O)(CC)CCCOc1ccc(Cl)c(-c2ccnc(NC(=O)c3nnc(CC4CCCC4)[nH]3)c2)c1 [Example 361, N-(4-(2-chloro-5-((4-ethyl-4-hydroxyhexyl)oxy)phenyl)pyridin-2-yl)-5-(cyclopentylmethyl)-4H-1,2,4-triazole-3-carboxamide]	≥ 7.00
Cc1ccc(OCCCO)cc1-c1ccnc(NC(=O)c2nnc(Cc3ccccc3)[nH]2)c1 [Example 140, 5-benzyl-N-(4-(5-(3-hydroxylpropoxy)-2-methylphenyl)pyridin-2-yl)-4H-1,2,4-triazole-3-carboxamide]	≥ 7.00
Cc1ccc(N(C)CCCC(C)(C)O)cc1-c1ccnc(NC(=O)c2nnc(Cc3ccccc3)[nH]2)c1 [Example 168]	6.00 to 7.00
Cc1ccc(OCCN2CCCCC2)cc1-c1ccnc(NC(=O)c2nnc(Cc3cc(F)ccc3F)[nH]2)c1 [Example 231, 5-(2,5-difluorobenzyl)-N-(4-(2-methyl-5-(2-(piperidin-1-yl)ethoxy)phenyl)pyridin-2-yl)-4H-1,2,4-triazole-3-carboxamide]	6.00 to 7.00

SMILES	pIC50
Cc1ccc(OCCC2CCCCCC2)cc1-c1ccnc(NC(=O)c2nnc(Cc3ccccc3)[nH]2)c1 [Example 225, 5-benzyl-N-(4-(5-(2-cycloheptylethoxy)-2-methylphenyl)pyridin-2-yl)-4H-1,2,4-triazole-3-carboxamide]	≥ 7.00
Cc1ccc(OCC(C)(C)O)cc1-c1ccnc(NC(=O)c2nnc(CC3CCCCC3)[nH]2)c1 [Example 119, 5-(cyclohexylmethyl)-N-(4-(5-(2-hydroxyl-2-methylpropoxy)-2-methylphenyl)pyridin-2-yl)-4H-1,2,4-triazole-3-carboxamide]	≥ 7.00
CC(C)(O)CCCOc1ccc(Cl)c(-c2cc(NC(=O)c3nnc(Cc4ccccc4F)[nH]3)ncc2F)c1 [Example 409]	≥ 7.00
Cc1ccc(OCCC2CCOCC2)cc1-c1ccnc(NC(=O)c2nnc(Cc3ccccc3)[nH]2)c1 [Example 87, 5-benzyl-N-(4-(2-methyl-5-(2-(tetrahydro-2H-pyran-4-yl)ethoxy)phenyl)pyridin-2-yl)-4H-1,2,4-triazole-3-carboxamide]	≥ 7.00
Cc1cnc(NC(=O)c2nnc(CC3CCCCC3)[nH]2)cc1-c1cc(OCCCC(C)(C)O)ccc1Cl [Example 414, N-(4-(2-chloro-5-((4-hydroxy-4-methylpentyl)oxy)phenyl)-5-methylpyridin-2-yl)-5-(cyclohexylmethyl)-4H-1,2,4-triazole-3-carboxamide]	6.00 to 7.00
COCCCOc1ccc(C(F)(F)F)c(-c2ccnc(NC(=O)c3nnc(Cc4ccccc4F)[nH]3)c2)c1 [Example 296, 5-(2-fluorobenzyl)-N-(4-(5-(3-methoxypropoxy)-2-(trifluoromethyl)phenyl)pyridin-2-yl)-4H-1,2,4-triazole-3-carboxamide]	≥ 7.00
COc1ccc(C)cc1-c1ccnc(NC(=O)c2nnc(Cc3ccccc3)[nH]2)c1 [Example 16, 5-benzyl-N-(4-(2-methoxy-5-methylphenyl)pyridin-2-yl)-4H-1,2,4-triazole-3-carboxamide]	5.00 to 6.00
Cc1cc(F)c(OCCCC(C)(C)O)cc1-c1ccnc(NC(=O)c2nnc(Cc3ccccc3)[nH]2)c1 [Example 237, 5-benzyl-N-(4-(4-fluoro-5-((4-hydroxy-4-methylpentyl)oxy)-2-methylphenyl)pyridin-2-yl)-4H-1,2,4-triazole-3-carboxamide]	≥ 7.00
COCCOc1ccc(Cl)c(-c2ccnc(NC(=O)c3nnc(CC4CCCC4)[nH]3)c2)c1 [Example 381, N-(4-(2-chloro-5-(2-methoxyethoxy)phenyl)pyridin-2-yl)-5-(cyclopentylmethyl)-4H-1,2,4-triazole-3-carboxamide]	≥ 7.00
Cc1ncc(OCCOC(C)C)cc1-c1ccnc(NC(=O)c2nnc(Cc3ccccc3)[nH]2)c1 [Example 132, 5-benzyl-N-(5-(2-isopropoxyethoxy)-2-methyl-[3,4′-dipyridine]-2′-yl)-4H-1,2,4-triazole-3-carboxamide]	6.00 to 7.00
Cc1ccc(N(C)CCCO)cc1-c1ccnc(NC(=O)c2nnc(Cc3ccccc3)[nH]2)c1 [Example 57, 5-benzyl-N-(4-(5-((3-hydroxypropyl)(methyl)amino)-2-methylphenyl)pyridin-2-yl)-4H-1,2,4-triazole-3-carboxamide]	6.00 to 7.00
Cc1ccc(OCC2CCOCC2)cc1-c1ccnc(NC(=O)c2nnc(CC3CCCC3)[nH]2)c1 [Example 79, 5-(cyclopentylmethyl)-N-(4-(2-methyl-5-((tetrahydro-2H-pyran-4-yl)methoxy)phenyl)pyridin-2-yl)-4H-1,2,4-triazole-3-carboxamide]	≥ 7.00
Cc1ccc(OCCCC(C)(C)O)cc1-c1ccnc(NC(=O)c2nnc(Cc3cc(F)c(F)cc3F)[nH]2)c1 [Example 218, 5-(2,4,5-trifluorobenzyl)-N-(4-(5-((4-hydroxy-4-methylpentyl)oxy)-2-methylphenyl)pyridin-2-yl)-4H-1,2,4-triazole-3-carboxamide]	≥ 7.00
CCC(O)(CC)CCCOc1ccc(Cl)c(-c2cc(NC(=O)c3nnc(Cc4ccccc4F)[nH]3)ncc2F)c1 [Example 415, N-(4-(2-chloro-5-((4-ethyl-4-hydroxyhexyl)oxy)phenyl)-5-fluoropyridin-2-yl)-5-(2-fluorobenzyl)-4H-1,2,4-triazole-3-carboxamide]	≥ 7.00
CC(C)(O)CCCOc1ccc(F)c(-c2ccnc(NC(=O)c3nnc(Cc4ccccc4)[nH]3)c2)c1 [Example 312, 5-benzyl-N-(4-(2-fluoro-5-((4-hydroxy-4-methylpentyl)oxy)phenyl)pyridin-2-yl)-4H-1,2,4-triazole-3-carboxamide]	6.00 to 7.00
CC(C)(O)COc1ccc(C(F)(F)F)c(-c2ccnc(NC(=O)c3nnc(Cc4ccccc4F)[nH]3)c2)c1 [Example 265, 5-(2-fluorobenzyl)-N-(4-(5-(2-hydroxyl-2-methylpropoxy)-2-(trifluoromethyl)phenyl)pyridin-2-yl)-4H-1,2,4-triazole-3-carboxamide]	6.00 to 7.00
